Results published in patent publication US8609654B1, “Compounds for enzyme inhibition” (Onyx Therapeutics, Inc., priority 2006, dated 2013).

Key:
[1] = test system: rheumatoid arthritis induced by anti-type II collagen antibodies and LPS; experiment: Arthrogenic antibody mouse model of rheumatoid arthritis (anti-collagen antibodies and LPS); assay type: in vivo, female Balb/c mice
Description: The effect of Compound 14 on disease progression was assessed in 2 mouse models of rheumatoid arthritis (FIG. 2). […] Rhematoid arthritis was induced on Day 0 in female Balb/c mice by IV administration of anti-type II collagen antibodies followed 3 days later by LPS. […] Per mouse, each paw was measured for disease using a scale of 0-4 and a total clinical score was assigned for each animal (max score=16). Administration of 6 mg/kg of Compound 14 reduced disease severity by ˜50% while the 20 mg/kg dose level inhibited the disease by greater than 75%.

[2] = test system: rheumatoid arthritis induced by immunization with bovine type II collagen in CFA; experiment: Mouse model of RA by immunization with bovine type II collagen; assay type: in vivo, female DBA/1 mice
Description: The effect administration of Compound 14 on disease progress was also assessed in an alternative mouse model for RA, in which disease develops 21-30 days after immunization with bovine type II collagen (Kagari et al., J Immunol 169:1459-1466, 2002). […] Again, disease progression was measured using a total clinical score of paw condition per mouse.

[3] = test system: chymotryptic-like activity of isolated 20S constitutive proteasome vs immunoproteasome; experiment: Enzyme kinetic assay with isolated 20S proteasome preps, EC50 ratio of CT-L activity (20S ratio); assay type: biochemical; settings: constitutive proteasome to immunoproteasome, >1 = prefers immunoproteasome
Excerpt: Enzyme kinetic assays such as those disclosed in U.S. application Ser. No. 09/569,748, Example 2 and Stein et al., Biochem. (1996), 35, 3899-3908 use isolated 20S proteasome preps with greater than 90% constitutive proteasome subunits or immunoproteasome subunits. The inhibitory preference of the molecule is then based on the EC50 ratio of the chymotryptic-like activity of the constitutive proteasome to that of the immunoproteasome (20S ratio).

[4] = target: T1, 26S proteasome CT-L activity in lysate of HT29 (constitutive) vs Sultan/Thp1 (immunoproteasome) cells (Homo sapiens, UniProt P28062+P28074); experiment: CT-L EC50 with 26S proteasome in cell lysate (Lysate ratio); assay type: biochemical; settings: HT29 lysate to Sultan/Thp1 lysate, >1 = prefers immunoproteasome
T1 construct: using 26S proteasome in the context of a cell lysate; endogenous in cells; host or cells: HT29 lysate (constitutive); Sultan or THP1 lysate (immunoproteasome)
T1 sequence (P28074 60-263): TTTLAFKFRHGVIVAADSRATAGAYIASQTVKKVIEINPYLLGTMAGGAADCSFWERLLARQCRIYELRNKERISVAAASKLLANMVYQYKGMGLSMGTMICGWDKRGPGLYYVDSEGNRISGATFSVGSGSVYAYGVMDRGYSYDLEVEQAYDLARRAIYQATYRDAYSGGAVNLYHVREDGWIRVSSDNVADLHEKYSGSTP
T1 sequence (P28062 73-276): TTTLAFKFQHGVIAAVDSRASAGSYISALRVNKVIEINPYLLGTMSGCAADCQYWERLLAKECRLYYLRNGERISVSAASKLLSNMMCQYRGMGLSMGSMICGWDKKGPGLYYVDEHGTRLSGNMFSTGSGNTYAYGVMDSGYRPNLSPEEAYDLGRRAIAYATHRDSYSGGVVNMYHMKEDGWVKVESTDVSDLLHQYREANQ
Description: Alternatively, the CT-L EC50 of a compound can be determined using 26S proteasome in the context of a cell lysate. Compound is added to lysate generated from cells that either predominantly express constitutive proteasome (e.g., HT29) or immunoproteasome (e.g., THP1). Again, the inhibitory preference is then based on the EC50 ratio (Lysate ratio).

[5] = target: T2, 20S proteasome subunit β5 vs immunoproteasome subunit LMP7 in RPMI-8226 cells (Homo sapiens, UniProt P28062+P28074); experiment: ELISA-based active site assay in RPMI-8226 cells (ELISA ratio); assay type: cell-based; settings: EC50 ratio with β5 antibody to LMP7 antibody, RPMI-8226 cells; >1 = prefers immunoproteasome
T2 construct: Cells expressing approximately equivalent amounts of immuno- and constitutive proteasome (e.g., RPMI-8226) are treated with test compound; endogenous in cells; host or cells: RPMI-8226 multiple myeloma cells
T2 sequence (P28074 60-263): T1 sequence (P28074 60-263)
T2 sequence (P28062 73-276): T1 sequence (P28062 73-276)
Description: Lastly, a more cell-based approach can be utilized. Cells expressing approximately equivalent amounts of immuno- and constitutive proteasome (e.g., RPMI-8226) are treated with test compound, followed by the method for determining the activity of a proteasome inhibitor as described in application Ser. No. 11/254,541. The ratio of the EC50 generated in the ELISA-based assay using β5 antibody and LMP7 antibodies (ELISA ratio) provides the basis for determining the inhibitory preference of the test compound. […] In all three assays, a ratio of less than one denotes the molecule inhibits the CT-L activity of the constitutive proteasome better than that of the immunoproteasome. Ratios greater than one signifies the molecule inhibits chymotrypsin-like activity of the immunoproteasome better than that of the constitutive proteasome.
A suitable ELISA assay may be found in U.S. patent application Ser. No. 11/254,541, incorporated herein in its entirety. Briefly, RPMI-8226 cells were treated with 0.1 nM to 1 μM of proteasome Inhibitor B. The samples were then washed with phosphate-buffered saline (PBS) and lysed in hypotonic buffer (20 mM Tris pH 8, 5 mM EDTA) (Tris-HCl and EDTA are available from Teknova, Inc., Hollister, Calif.). Cellular debris was removed by centrifugation at 14,000 rpm in a microfuge (4° C.) for 2 min. The supernatant was transferred to a fresh tube, snap frozen in liquid nitrogen and stored at −80° C. After thawing on ice, the samples (30 μl for assays run in triplicate) were treated with 500 nM of Inhibitor A for 1 hr at room temperature. Following treatment with Inhibitor A, the lysate was denatured by addition of seven volumes of 1% SDS (210 μl) (available from Bio-Rad, Hercules, Calif.) and heating at 99° C. with vigorous shaking for 5 min. The sample was allowed to cool and two volumes (60 μl) of 10% Triton X-100 (available from Bio-Rad, Hercules, Calif.) was added.
Streptavidin sepharose beads (6.5 μl/well) (available from Amersham Biosciences, Piscataway, N.J.), were washed three times with 1 ml PBS (available from Mediatech, Inc., Herndon, Va.) in a microcentrifuge tube. The beads were resuspended in ELISA wash/block buffer (PBS+0.1% Tween 20+1% bovine serum albumin; 20 μl/well) and transferred to the wells of a 96 well filter plate (BSA is available from Sigma, St. Louis, Mo.; Tween is available from Calbiochem, San Diego, Calif.). Denatured whole blood or PBMC lysates that were treated with Inhibitor 3 were added to the filter plate wells containing the streptavidin sepharose beads (each sample assayed in triplicate) and incubated for 1 hr at room temperature with shaking (MultiScreen-DV Opaque Plates with low protein binding durapore membrane; available from Millipore, Billerica, Mass.). The unbound material was removed by gentle filtration and the beads were washed six times with ELISA wash/block buffer (200 μl each).
Primary antibody to human 20S proteasome subunit (35 (rabbit polyclonal antibody; available from Biomol, Plymouth Meeting, Pa.) or human 20S immunoproteasome subunit LMP7 (rabbit polyclonal antibody; available from Affinity BioReagents, Golden, Colo.) was diluted 1:1000 in ELISA wash/block buffer, added to the beads (100 μl/well), and incubated for 1 hr at room temperature on an orbital shaker. The beads were washed six times with ELISA wash/block buffer with gentle filtration. Secondary antibody treatment (1:5000) and washing are as described for primary antibody (goat anti-rabbit antibody-HRP conjugate; available from Biosource, Camarillo, Calif.). The beads were then resuspended in 100 μl chemiluminescent detection reagent (Super Signal Pico Chemiluminescent Substrate™; available from Pierce, Rockford, Ill.) and luminescence was read on a Tecan plate reader. […]

| 20 S ratio (const:immuno) [3] | Lysate ratio (HT29:Sultan/Thp1) [4] | Elisa ratio (beta5:LMP7) [5] | Structure (SMILES) | reduction of disease severity ([1]; 6 mg/kg IV 3 times/week for 2 weeks from Day 4) [%] | inhibition of the disease ([1]; 20 mg/kg IV 3 times/week for 2 weeks from Day 4) | effect on disease progression ([1]; IV 3 times/week for 2 weeks from Day 4, total clinical score (max 16)) | effect on disease progression ([2]; 6 or 20 mg/kg beginning after first signs of disease, total clinical score) | dose dependence of reduction of disease severity ([2]; 6 vs 20 mg/kg) |
| --- | --- | --- | --- | --- | --- | --- | --- | --- |
|  |  |  | COc1ccc(C[C@H](NC(=O)[C@H](C)NC(=O)CN2CCOCC2)C(=O)N[C@@H](Cc2ccccc2)C(=O)[C@@]2(C)CO2)cc1 [Compound 14] | ~50 | greater than 75% | inhibited disease progression in a dose dependent manner | inhibited disease progression as compared to vehicle control | enhanced reduction of disease severity |
| <1.0 | <1.0 | <0.5 | CC(NC(=O)OCc1ccccc1)C(=O)N1Cc2ccccc2C[C@@H]1C(=O)N[C@@H](Cc1ccccc1)C(=O)C1(C)CO1 (some centres unmarked) |  |  |  |  |  |
| >5.0 | >5.0 | >3.0 | C[C@@H](NC(=O)OCc1ccccc1)C(=O)N[C@@H](Cc1c[nH]c2ccccc12)C(=O)N[C@@H](Cc1ccc(O)cc1)C(=O)C1(C)CO1 (some centres unmarked) |  |  |  |  |  |
| >5.0 | >2.0 | >3.0 | CC1(C(=O)[C@H](Cc2ccccc2)NC(=O)[C@H](Cc2ccccc2)NC(=O)[C@@H](Cc2ccccc2)NC(=O)OCc2ccccc2)CO1 (some centres unmarked) |  |  |  |  |  |
| >1.0 | >2.0 | >5.0 | C[C@H](NC(=O)OCc1ccccc1)C(=O)N[C@@H](Cc1ccc(C#N)cc1)C(=O)N[C@@H](Cc1ccccc1)C(=O)C1(C)CO1 (some centres unmarked) |  |  |  |  |  |
